# Test results as given in US10947188B2, “Small molecule ferroptosis inducers” (THE TRUSTEES OF COLUMBIA UNIVERSITY IN THE CITY OF NEW YORK, priority 2016, dated 2021).
# Like-named read-outs stand apart in the source and are kept apart here.
# Legend:
# [1] = test system: HT-1080; assay: Modulatory profiling: Alamar Blue viability, lethal compound cotreated with death modulator (EC50, AUC); type: cell-based; set-up: AUC, modulator HT.3MA / AUC, modulator HT.ALLN / AUC HT.ATA / AUC HT.ActD / AUC HT.BHA / AUC HT.BHT / AUC HT.BocD / AUC HT.CHX / AUC HT.Co2+ / AUC HT.DPQ / AUC HT.EGTA / AUC HT.Lmim / AUC HT.NAD+ / AUC HT.Nec-1 / AUC HT.SP600125 / AUC HT.TLCK / AUC HT.U0126: unit not given beside the values; conditions: for AUC HT.ATA: HT-1080, modulator ATA; for AUC HT.ActD: HT-1080, modulator ActD; for AUC HT.BHA: HT-1080, modulator BHA; for AUC HT.BHT: HT-1080, modulator BHT; for AUC HT.BocD: HT-1080, modulator BocD; for AUC HT.CHX: HT-1080, modulator CHX; for AUC HT.Co2+: HT-1080, modulator Co2+; for AUC HT.CspA: HT-1080, modulator CspA; for AUC HT.DPQ: HT-1080, modulator DPQ; for AUC HT.Gd3+: HT-1080, modulator Gd3+; for AUC HT.LNAME: HT-1080, modulator LNAME; for AUC HT.Lmim: HT-1080, modulator Lmim; for AUC HT.NAD+: HT-1080, modulator NAD+; for AUC HT.NMMA: HT-1080, modulator NMMA; for HT.atoc (AUC) / HT.bCarotene (AUC) / HT.deferox (AUC) / HT.digoxin (AUC) / HT.trolox (AUC) / HT.zVAD (AUC): HT-1080; for HT.atoc (AUC): modulator atoc; for HT.bCarotene (AUC): modulator bCarotene; for HT.deferox (AUC): modulator deferox; for HT.digoxin (AUC): modulator digoxin; for HT.trolox (AUC): modulator trolox; for HT.zVAD (AUC): modulator zVAD; for AUC, modulator HT.3MA / AUC, modulator HT.ALLN: HT-1080 cells, modulatory profile value (AUC); for AUC, modulator HT.3MA: lethal compound cotreated with modulator 3MA; for AUC, modulator HT.ALLN: lethal compound cotreated with modulator ALLN; on AUC HT.BHA: reference of the scale not given here; on AUC HT.EGTA: reference of the scale not given here
# [2] = test system: BJeLR; assay: as above; type: cell-based, human; set-up: AUC, modulator BJ.Gd3+ / AUC, modulator BJ.LNAME / AUC, modulator BJ.Lmin / AUC, modulator BJ.3MA / AUC, modulator BJ.ALLN / AUC, modulator BJ.Boc D / AUC, modulator BJ.CHX / AUC, modulator BJ.Co2+ / AUC, modulator BJ.Nec-1 / AUC, modulator BJ.Pepstatin / AUC, modulator BJ.TLCK / AUC, modulator BJ.atoc / AUC, modulator BJ.trolox / AUC, modulator BJ.zVAD: unit not given beside the values; conditions: BJeLR cells, modulatory profile value (AUC); for AUC, modulator BJ.3MA: lethal compound cotreated with modulator 3MA; for AUC, modulator BJ.ALLN: lethal compound cotreated with modulator ALLN; for AUC, modulator BJ.Boc D: lethal compound cotreated with modulator Boc D; for AUC, modulator BJ.CHX: lethal compound cotreated with modulator CHX; for AUC, modulator BJ.Co2+: lethal compound cotreated with modulator Co2+; for AUC, modulator BJ.DPQ: lethal compound cotreated with modulator DPQ; for AUC, modulator BJ.Gd3+: lethal compound cotreated with modulator Gd3+; for AUC, modulator BJ.LNAME: lethal compound cotreated with modulator LNAME; for AUC, modulator BJ.Lmin/NAD+: lethal compound cotreated with modulator Lmin/NAD+; for AUC, modulator BJ.Lmin: lethal compound cotreated with modulator Lmin; for AUC, modulator BJ.NAD+: lethal compound cotreated with modulator NAD+; for AUC, modulator BJ.NMMA: lethal compound cotreated with modulator NMMA; for AUC, modulator BJ.Nec-1: lethal compound cotreated with modulator Nec-1; for AUC, modulator BJ.Pepstatin: lethal compound cotreated with modulator Pepstatin; for AUC, modulator BJ.TLCK: lethal compound cotreated with modulator TLCK; for AUC, modulator BJ.atoc: lethal compound cotreated with modulator atoc; for AUC, modulator BJ.trolox: lethal compound cotreated with modulator trolox; for AUC, modulator BJ.zVAD: lethal compound cotreated with modulator zVAD; on AUC, modulator BJ.3MA: reference of the scale not given here; on AUC, modulator BJ.ALLN: reference of the scale not given here; on AUC, modulator BJ.Boc D: reference of the scale not given here; on AUC, modulator BJ.CHX: reference of the scale not given here; on AUC, modulator BJ.Co2+: reference of the scale not given here; on AUC, modulator BJ.DPQ: reference of the scale not given here; on AUC, modulator BJ.Gd3+: reference of the scale not given here; on AUC, modulator BJ.LNAME: reference of the scale not given here; on AUC, modulator BJ.NAD+: reference of the scale not given here; on AUC, modulator BJ.NMMA: reference of the scale not given here; on AUC, modulator BJ.Nec-1: reference of the scale not given here; on AUC, modulator BJ.Pepstatin: reference of the scale not given here; on AUC, modulator BJ.TLCK: reference of the scale not given here
compound,measurement,setting,value
COc1cccc2c1C(=O)c1c(O)c3c(c(O)c1C2=O)C[C@@](O)(C(C)=O)C[C@@H]3O[C@H]1C[C@H](N)[C@H](O)[C@H](C)O1 [Daunorubicin],AUC HT.EGTA,[1],0.03262
same,AUC HT.ATA,[1],−0.00186
same,AUC HT.ActD,[1],0.01442
same,AUC HT.BHA,[1],0.0107
same,AUC HT.BHT,[1],−0.05609
same,AUC HT.BocD,[1],0.0522
same,AUC HT.CHX,[1],0.05854
same,AUC HT.Co2+,[1],0.1614
same,AUC HT.CspA,[1],−0.0792
same,AUC HT.DPQ,[1],0.008882
same,AUC HT.Gd3+,[1],0.01529
same,AUC HT.LNAME,[1],−0.009852
same,AUC HT.Lmim,[1],0.06112
same,AUC HT.NAD+,[1],0.1305
same,AUC HT.NMMA,[1],0.0183
same,AUC HT.Nec-1,"[1]; HT-1080, modulator Nec-1",0.02174
same,AUC HT.Pepstatin,"[1]; HT-1080, modulator Pepstatin",0.005649
same,AUC HT.SP600125,"[1]; HT-1080, modulator SP600125",−0.0113
same,AUC HT.TLCK,"[1]; HT-1080, modulator TLCK",0.06429
same,AUC HT.U0126,"[1]; HT-1080, modulator U0126",−0.0159
same,HT.atoc (AUC),[1],0.009895
same,HT.bCarotene (AUC),[1],0.008265
same,HT.deferox (AUC),[1],0.1515
same,HT.digoxin (AUC),[1],0.1398
same,HT.trolox (AUC),[1],−0.002722
same,HT.zVAD (AUC),[1],0.04455
same,"AUC, modulator HT.3MA",[1],0.02823
same,"AUC, modulator HT.ALLN",[1],0.008692
same,"AUC, modulator BJ.3MA",[2],0.03793
same,"AUC, modulator BJ.ALLN",[2],0.02846
same,"AUC, modulator BJ.Boc D",[2],0.03322
same,"AUC, modulator BJ.CHX",[2],0.1497
same,"AUC, modulator BJ.Co2+",[2],0.2122
same,"AUC, modulator BJ.DPQ",[2],−0.03527
same,"AUC, modulator BJ.Gd3+",[2],−0.005247
same,"AUC, modulator BJ.LNAME",[2],0.005526
same,"AUC, modulator BJ.Lmin/NAD+",[2],0.1434
same,"AUC, modulator BJ.Lmin",[2],0.05475
same,"AUC, modulator BJ.NAD+",[2],0.1226
same,"AUC, modulator BJ.NMMA",[2],−0.01867
same,"AUC, modulator BJ.Nec-1",[2],−0.02055
same,"AUC, modulator BJ.Pepstatin",[2],0.02539
same,"AUC, modulator BJ.TLCK",[2],0.02856
same,"AUC, modulator BJ.atoc",[2],0.004145
same,"AUC, modulator BJ.trolox",[2],−0.02026
same,"AUC, modulator BJ.zVAD",[2],0.05594
COC(C)(C)C#CC(=O)c1cccc2ccccc12 [CIL34],AUC HT.ATA,[1],0.05661
same,AUC HT.ActD,[1],−0.03224
same,AUC HT.BHA,[1],0.01628
same,AUC HT.BHT,[1],−0.1102
same,AUC HT.BocD,[1],−0.007476
same,AUC HT.CHX,[1],0.0461
same,AUC HT.Co2+,[1],0.09926
same,AUC HT.CspA,[1],−0.02181
same,AUC HT.DPQ,[1],0.0333
same,AUC HT.EGTA,"[1]; HT-1080, modulator EGTA",−0.002035
same,AUC HT.Gd3+,[1],−0.02283
same,AUC HT.LNAME,[1],−0.00517
same,AUC HT.Lmim,[1],−0.002139
same,AUC HT.NAD+,[1],−0.005535
same,AUC HT.NMMA,[1],−0.003031
same,HT.atoc (AUC),[1],0.08125
same,HT.bCarotene (AUC),[1],0.001321
same,HT.deferox (AUC),[1],0.1115
same,HT.digoxin (AUC),[1],−0.01032
same,HT.trolox (AUC),[1],−0.02993
same,HT.zVAD (AUC),[1],0.007148
same,"AUC, modulator HT.3MA",[1],0.1255
same,"AUC, modulator HT.ALLN",[1],0.1551
same,"AUC, modulator BJ.3MA",[2],0.07701
same,"AUC, modulator BJ.ALLN",[2],−0.04374
same,"AUC, modulator BJ.Boc D",[2],−0.02462
same,"AUC, modulator BJ.CHX",[2],0.1215
same,"AUC, modulator BJ.Co2+",[2],0.07311
same,"AUC, modulator BJ.DPQ",[2],0.03951
same,"AUC, modulator BJ.Gd3+",[2],−0.032
same,"AUC, modulator BJ.LNAME",[2],−0.01631
same,"AUC, modulator BJ.Lmin/NAD+",[2],0.04257
same,"AUC, modulator BJ.Lmin",[2],−0.0234
same,"AUC, modulator BJ.NAD+",[2],−0.004372
same,"AUC, modulator BJ.NMMA",[2],0.03326
same,"AUC, modulator BJ.Nec-1",[2],−0.03852
same,"AUC, modulator BJ.Pepstatin",[2],0.04418
same,"AUC, modulator BJ.TLCK",[2],−0.1073
same,"AUC, modulator BJ.atoc",[2],0.05781
same,"AUC, modulator BJ.trolox",[2],0.007029
same,"AUC, modulator BJ.zVAD",[2],0.005997
